Assay results from ChEMBL document CHEMBL2429776, “Cyclic 3-alkyl pyridinium alkaloid monomers from a New Zealand Haliclona sp. marine sponge” (J Nat Prod, 2013).
The source made the active and inactive calls. The rule behind the calls is not given here.

Columns and labels:
Assay type in all cases: functional, organism-based
[1] = tested on: Candida albicans; test: Antifungal activity against Candida albicans ATCC 10231 at 2 ug after 24 hrs by disk-diffusion assay
[2] = tested on: Saccharomyces cerevisiae; test: Antifungal activity against Saccharomyces cerevisiae YCG 117 after 18 hrs; settings: YCG 117, 18 h
[3] = tested on: Candida albicans; test: Antifungal activity against Candida albicans ATCC 10231 at 8 ug after 24 hrs by disk-diffusion assay
[4] = tested on: Candida albicans; test: Antifungal activity against Candida albicans ATCC 10231 at 20 ug after 24 hrs by disk-diffusion assay
[5] = tested on: Enterococcus faecalis; test: Antimicrobial activity against Enterococcus faecalis ATCC 19433 at 8 ug after 24 hrs by disk-diffusion assay
[6] = tested on: Enterococcus faecalis; test: Antimicrobial activity against Enterococcus faecalis ATCC 19433 at 2 ug after 24 hrs by disk-diffusion assay
[7] = tested on: Enterococcus faecalis; test: Antimicrobial activity against Enterococcus faecalis ATCC 19433 at 20 ug after 24 hrs by disk-diffusion assay

| IC50 [2] [µg/mL] | SMILES | Activity [1] | Activity [3] | Activity [4] | Activity [5] | Activity [6] | Activity [7] |
| --- | --- | --- | --- | --- | --- | --- | --- |
| 1.5 | C1=C\CCCCCC[n+]2cccc(c2)CCCCCC/1 | inactive | inactive | inactive | inactive | inactive | inactive |
| 1.5 | C1=C\CCCCC[n+]2cccc(c2)CCCCCC/1 | inactive | inactive | inactive | inactive | inactive | inactive |
| 1.5 | c1cc2c[n+](c1)CCCCCCCCCCCCC2 | inactive | inactive | inactive | inactive | inactive | inactive |
